“Also recorded” adds a separate entry of the source.
Key:
Type in all cases: physicochemical
[1] = Physical and chemical stability on storage (XRPD, HPLC); conditions: for chemical purity during storage: HPLC; for Form after storage: XRPD
Experimental: A certain amount of Form CSV of the present disclosure was stored under different conditions of 40° C./75% RH and 60° C./75% RH. Crystalline form and chemical purity were checked by XRPD and HPLC, respectively. Open packaged: Put the sample into a glass vial, cover the vial with aluminum foil, and punch 5-10 holes in the foil. Sealed packaged: Put the sample into a glass vial, and seal the vial and desiccant in an aluminum foil bag. A certain amount of Form CSIII of the present disclosure was stored under different conditions of 25° C./60% RH and 40° C./75% RH with sealed and open packaged. Crystalline form and chemical purity were checked by XRPD and HPLC, respectively. Open packaged: Put the sample into a glass vial, cover the vial with an aluminum foil, and punch 5-10 holes in the foil. Sealed packaged: Put the sample into a glass vial, and seal the vial and desiccant in an aluminum foil bag.

[2] = Dynamic vapor sorption (DVS) hygroscopicity, with XRPD before and after DVS; conditions: for crystalline state after DVS (XRPD): humidity cycle 0%-95%-0% RH; for weight gain from 0% to 70% RH: 25° C., cycle of 0%-95%-0% RH
Experimental: Dynamic Vapor Sorption (DVS) was measured via an SMS (Surface Measurement Systems Ltd.) intrinsic DVS instrument. The instrument control software is DVS-Intrinsic control software. Typical Parameters for DVS test are as follows: • Temperature: 25° C. • Gas and flow rate: N2, 200 mL/min • RH range: 0% RH to 95% RH Dynamic vapor sorption (DVS) analyzer was applied to evaluate the hygroscopicity of amorphous with a certain amount of sample obtained by Example 6. The weight gains at each relative humidity were recorded in a cycle of 0%-95%-0% RH. […] Dynamic vapor sorption (DVS) analyzer was applied to evaluate hygroscopicity of Form CSV with a certain amount of sample. The weight gains at each relative humidity were recorded in a cycle of 0%-95%-0% RH. Dynamic vapor sorption (DVS) analyzer was applied to evaluate hygroscopicity of Form CSIII with a certain amount of sample. The weight gains at each relative humidity were recorded in a cycle of 0%-95%-0% RH. The XRPD patterns of Form CSIII before and after DVS test are shown in FIG. 13 and the DVS curve of Form CSIII is shown in FIG. 13.

[3] = Adhesiveness: material sticking to the punch after compression; conditions: about 30 mg, 8 mm round tooling, 10 kN held for 30s
Experimental: ENERPAC manual tablet press was used for testing. Approximately 30 mg of Form CSV was weighed and then added into the dies of @8 mm round tooling, compressed at 10 kN and held for 30s. The punch was weighed and the amount of material sticking to the punch was calculated. The compression was repeated twice and the maximum amount and average amount of material sticking to the punch during the compression were recorded.

[4] = Physical stability upon mechanical force (tableting, XRPD)
Excerpt: A certain amount of Form CSV was compressed into tablet under different pressures with suitable tableting die. Crystalline form before and after tableting were checked by XRPD.

[5] = Flowability by compressibility index (bulk and tapped density)
Experimental: Compressibility index is usually utilized to evaluate the flowability of powder or granules during the drug product process. Compressibility index test method is as follows: a certain amount of powder was added into a measuring cylinder and bulk volume was recorded. Then the powder was tapped to make it in the tightest state and the tapped volume was recorded. The bulk density (ρ0) and tapped density (ρf) were calculated and compressibility index was calculated according to c=(ρf−ρ0)/ρf.

[6] = 40° C./75% RH, open and sealed package

Row | chemical purity during storage ([1]; 25° C./60% RH, at least 6 months) | time for which the form is stable ([1]; 25° C./60% RH, sealed and open packaged) | chemical purity during storage ([1]; 40° C./75% RH, at least 2 months) | time for which the form is stable [1, 6] | Form after storage ([1]; 40° C./75% RH, open packaged, 9 months) | Form after storage ([1]; 40° C./75% RH, sealed packaged, 9 months) | time for which the form is stable ([1]; 60° C./75% RH, open and sealed package) | Form after storage ([1]; 60° C./75% RH, open packaged, 1 month) | Form after storage ([1]; 60° C./75% RH, sealed packaged, 1 month) | average adhesion amount [3] | Solid form after tableting ([4]; Pressure 5 kN) | Solid form after tableting ([4]; Pressure 10 kN) | Solid form after tableting ([4]; Pressure 20 kN) | weight gain from 0% to 70% RH ([2]; DVS) | Bulk density [5] | Tapped density [5] | Flowability ([5]; class by compressibility index, ICH Q4B Annex 13) | weight gain of amorphous from 0 to 70% RH relative to that of Form CSV ([2]; DVS, 0 to 70% RH) | weight gain from 0% to 70% RH ([2]; DVS, listed as prior art amorphous) | Structure (SMILES) | crystalline state after DVS (XRPD) [2]
1 | above 99.5% | at least 6 months | above 99.5% | at least 2 months | – | – | – | – | – | – | – | – | – | – | – | – | – | – | – | O=C(O)CCCc1cc2cc(Cl)ccc2n1S(=O)(=O)c1ccc2ncsc2c1 [Form CSIII, 5-Chloro-1-[(6-benzothiazolyl)sulfonyl]-1H-indole-2-butanoic acid] | remains unchanged
2 | – | – | – | at least 9 months | Form CSV | Form CSV | at least 1 month | Form CSV | Form CSV | 0.45 mg | Form CSV | Form CSV | Form CSV | 0.35% | 0.412 g/mL | 0.515 g/mL | Fair (16-20) | – | – | O=C(O)CCCc1cc2cc(Cl)ccc2n1S(=O)(=O)c1ccc2ncsc2c1 [Form CSV, 5-Chloro-1-[(6-benzothiazolyl)sulfonyl]-1H-indole-2-butanoic acid] | remains unchanged; also recorded: doesn't change
3 | – | – | – | – | – | – | – | – | – | – | – | – | – | 1.18% | – | – | – | about 3.4 times | 1.18% | O=C(O)CCCc1cc2cc(Cl)ccc2n1S(=O)(=O)c1ccc2ncsc2c1 [amorphous, 5-Chloro-1-[(6-benzothiazolyl)sulfonyl]-1H-indole-2-butanoic acid, reference compound] | –

— patent publication US20240343723A1, “CRYSTAL FORM OF LANIFIBRANOR, PREPARATION METHOD THEREFOR, AND USE THEREOF” (CRYSTAL PHARMACEUTICAL (SUZHOU) CO., LTD., priority 2021, published 2024)
